Results on twelve compounds are retold here after US10758609B2, “Cross-reactive T-cell epitopes of HIV, SIV, and FIV for vaccines in humans and cats” (priority 2015, dated 2020).

Residues, ends and D or L forms follow the SMILES beside them.

The test system of this data set is CD8^+ T cells from HIV^+ subjects. Briefly: FACS-based intracellular staining (ICS) for cytolysin (perforin) and cytotoxins (GrzA, GrzB) in CD8+ T cells. To be noted: HIV+ human subjects; for Cyto: CD8+ T-cell cytotoxins (perforin, GrzA & B), frequency of responders: FIV epitope peptide; for Cyto (cytolysin/cytotoxin production), frequency of responders: FIV peptides; for CyCD8: CD8+ T-cell cytolysin/cytotoxins (perforin, GrzA & B), frequency of responders: HIV-1 epitope peptide, threshold ≥0.2%. The procedure:
The overlapping peptide pools of FIV and HIV-1 structural and enzyme proteins were used to stimulate the […] (PBMC) and the T cells from HIV^+ subjects as previously described for epitope mapping of HIV-1 and FIV p24 and reverse transcriptase (RT) (Sanou et al., 2013; Roff et al., 2015). The individual peptides in those peptide pools with positive responses to either interferon-γ (IFNγ) production and/or T-cell proliferation were determined with IFNγ ELISpot analysis and CFSE-based CD3^+CD4^+ and CD3^+CD8^+ T-cell proliferation analyses followed by the FACS-based intracellular staining (ICS) for cytolysin (perforin) and cytotoxin (granzyme A [GrzA] and GrzB) (Sanou et al., 2013; Roff et al., 2015). Besides viral p24 and RT proteins, the identical approach was used to identify anti-HIV/FIV T-cell epitopes on viral matrix (MA), nucleocapsid (NC), protease (PR), RNAase, integrase (IN), surface envelope (SU Env), and transmembrane envelope (TM Env) (FIG. 12).
Since our goal is to develop HIV vaccine for human use, the HIV peptides (Table 10) counterpart of the cross-reactive FIV peptides shown in Table 9 were tested with PBMC and T cells from HIV^+ subjects. The immune functions analyzed were human IFNγ production by ELISpot, cytolysin/cytotoxin production by ICS, and CFSE-based proliferation of CD3^+CD4^+ and CD3^+CD8^+ T cells from HIV^+ subjects (Table 10, the first set of results). In addition, the Los Alamos National Laboratories (LANL) database was used to identify the HLA allele(s) of the HIV epitope sequence with CTL activity that can exist within the sequence of the conserved counterpart HIV peptide (Table 9, LANL CTL). The bold HLA class-I supertypes and the bold 2-digit alleles are those on the “Optimal CD8^+ CTL Epitopes” list and those without bold are alleles for potential CTL epitope. […] The HLA class II such as HLA-DRB1 has yet to be fully classified into supertypes, and therefore the 4-digit resolution nomenclatures for the HLA-DRB1 alleles are shown.
The threshold for positive IFNγ and IL2 ELISpot responses is ≥50 spot-forming units (SFU) per 10^6 PBMC. The threshold for CFSE-based CD4^+ and CD8^+ T-cell proliferation is ≥2% CD4^+ T-cell CFSE^low or CD8^+ T-cell CFSE^low. The threshold of FACS-based intracellular cytokine staining (ICS) is ≥0.2%. […] The nine FIV peptides in black were used in the current MAP vaccine trial, whereas the 13 peptides in blue were not used. […] The MAPs and their corresponding peptide(s) were also tested for their ability to enhance or suppress in vitro FIV infection of feline PBMC (E/S of peptides and E/S of MAP).
The counterpart HIV-1 peptides of the FIV peptides were also tested for immunogenicity using PBMC and T cells from HIV^+ human subjects. […] The HRT7-1 and HRT7-2 were also tested with cells from HIV^+ subjects on ART. The threshold for positive IFNγ ELISpot response is ≥75 spot-forming units (SFU) per 10^6 PBMC. The threshold for CFSE-based CD4^+ (CD4^+ T) and CD8^+ (CD8^+ T) T-cell proliferation is ≥2% CD4^+ T-cell CFSE^low or CD8^+ T-cell CFSE^low. The threshold of intracellular cytokine staining (ICS) of FACS-based cytolysin (perforin) and cytotoxins (granzymes A and B) in CD4^+ T cells (CyCD4) and CD8^+ T cells (CyCD8) is ≥0.2%. […] The nine HIV-1 peptides in black are the counterpart FIV peptides used in the current MAP vaccine trial, whereas the 13 peptides in blue were not.

With `CC[C@H](C)[C@H](NC(=O)[C@H](CCCNC(=N)N)NC(=O)[C@H](CC(C)C)NC(=O)[C@H](CO)NC(=O)[C@H](CCC(=O)O)NC(=O)[C@H](CCC(N)=O)NC(=O)[C@H](CCC(N)=O)NC(=O)[C@H](CCSC)NC(=O)[C@H](Cc1ccc(O)cc1)NC(=O)[C@H](CC(C)C)NC(=O)[C@H](CCC(=O)O)NC(=O)[C@@H](N)Cc1ccc(O)cc1)C(=O)N[C@@H](CCC(N)=O)C(=O)N[C@@H](CC(=O)O)C(=O)N[C@@H](CCCNC(=N)N)C(=O)O` [FIN7-1] (H-YELYMQQESLRIQDR-OH; N-terminus and C-terminus assumed), the “Cyto: CD8+ T-cell cytotoxins (perforin, GrzA & B), frequency of responders” value (shortened to “Cyto: CD8+ T-cell cytotoxins”) is “++ (26%-40% (++))” and the “Cyto (cytolysin/cytotoxin production), frequency of responders” value (shortened to “Cyto (cytolysin/cytotoxin production)”) is recorded as “++ (25.1%-40% (++))”.

`CC[C@H](C)[C@H](N)C(=O)N[C@@H](CC(=O)O)C(=O)N[C@@H](Cc1ccccc1)C(=O)N[C@@H](CCCNC(=N)N)C(=O)N[C@H](C(=O)N[C@@H](CC(C)C)C(=O)N[C@@H](CC(N)=O)C(=O)N[C@@H](CCCCN)C(=O)N[C@@H](CC(C)C)C(=O)N[C@H](C(=O)N[C@@H](CC(=O)O)C(=O)N[C@@H](CCCCN)C(=O)NCC(=O)N[C@@H](C)C(=O)O)[C@@H](C)O)C(C)C` [FRT3-5] (H-IDFRVLNKLTDKGA-OH; N-terminus and C-terminus assumed): the “Cyto: CD8+ T-cell cytotoxins” value was “+++ (41%-54% (+++))”.

Regarding `CC(C)C[C@H](NC(=O)[C@@H](NC(=O)[C@H](Cc1c[nH]c2ccccc12)NC(=O)CNC(=O)[C@H](CCC(N)=O)NC(=O)[C@@H]1CCCN1C(=O)[C@H](CC(C)C)NC(=O)[C@H](CO)NC(=O)[C@H](CS)NC(=O)[C@H](Cc1c[nH]c2ccccc12)NC(=O)[C@@H](NC(=O)[C@H](Cc1ccc(O)cc1)NC(=O)[C@H](CCCNC(=N)N)NC(=O)[C@H](CCCNC(=N)N)NC(=O)CN)C(C)C)C(C)C)C(=O)O` [FRT7-1] (H-GRRYVWCSLPQGWVL-OH), the “Cyto: CD8+ T-cell cytotoxins” value is “+++ (41%-54% (+++))” and the “Cyto (cytolysin/cytotoxin production)” value is listed as “+++ (40.1%-54% (+++))”.

Regarding `CC[C@H](C)[C@H](NC(=O)[C@H](CC(C)C)NC(=O)[C@@H]1CCCN1C(=O)[C@H](CO)NC(=O)[C@H](CC(C)C)NC(=O)[C@@H](NC(=O)[C@H](Cc1c[nH]c2ccccc12)NC(=O)CNC(=O)[C@H](CCC(N)=O)NC(=O)[C@@H]1CCCN1C(=O)[C@H](CC(C)C)NC(=O)[C@H](CO)NC(=O)[C@@H](N)CS)C(C)C)C(=O)N[C@@H](Cc1ccc(O)cc1)C(=O)O` [FRT7-2] (H-CSLPQGWVLSPLIY-OH), the “Cyto: CD8+ T-cell cytotoxins” value is given as “++++ (>54% (++++))” and the “Cyto (cytolysin/cytotoxin production)” value was “++++ (>54% (++++))”.

Regarding `CSCC[C@H](NC(=O)[C@H](CCCNC(=N)N)NC(=O)[C@H](C)NC(=O)[C@@H]1CCCN1C(=O)[C@H](C)NC(=O)[C@@H](N)Cc1ccccc1)C(=O)N[C@@H](CCC(N)=O)C(=O)N[C@@H](CS)C(=O)N[C@@H](CCCNC(=N)N)C(=O)N[C@@H](C)C(=O)N[C@@H](Cc1c[nH]c2ccccc12)C(=O)N[C@@H](Cc1ccc(O)cc1)C(=O)N[C@@H](CC(C)C)C(=O)N[C@@H](CCC(=O)O)C(=O)N[C@@H](C)C(=O)O` [Fp9-3] (H-FAPARMQCRAWYLEA-OH), the “Cyto: CD8+ T-cell cytotoxins” value is reported as “+++ (41%-54% (+++))” and the “Cyto (cytolysin/cytotoxin production)” value is recorded as “+++ (40.1%-54% (+++))”.

On to `CC(C)C[C@H](NC(=O)[C@H](Cc1ccc(O)cc1)NC(=O)[C@H](CC(C)C)NC(=O)[C@H](CCCCN)NC(=O)[C@@H](NC(=O)[C@H](CCC(=O)O)NC(=O)[C@H](C)NC(=O)[C@@H](NC(=O)[C@H](CC(N)=O)NC(=O)[C@H](CCC(N)=O)NC(=O)[C@H](CCC(=O)O)NC(=O)[C@H](CCC(N)=O)NC(=O)[C@@H](N)CC(=O)O)[C@@H](C)O)C(C)C)C(=O)N[C@@H](CCCCN)C(=O)O` [Fp14-1] (H-DQEQNTAEVKLYLK-OH), for which the “Cyto: CD8+ T-cell cytotoxins” value is listed as “+++ (41%-54% (+++))” and the “Cyto (cytolysin/cytotoxin production)” value is reported as “+++ (40.1%-54% (+++))”.

With `CC[C@H](C)[C@H](NC(=O)[C@H](CO)NC(=O)[C@H](CC(C)C)NC(=O)[C@H](CO)NC(=O)[C@H](CCC(N)=O)NC(=O)[C@H](CCCCN)NC(=O)[C@H](CC(C)C)NC(=O)[C@H](Cc1ccc(O)cc1)NC(=O)[C@H](CC(C)C)NC(=O)[C@H](CCCCN)NC(=O)[C@@H](NC(=O)[C@H](CCC(=O)O)NC(=O)[C@H](C)N)C(C)C)C(=O)N[C@@H](C)C(=O)O` [Fp14-3] (H-AEVKLYLKQSLSIA-OH; N-terminus and C-terminus assumed), the “Cyto: CD8+ T-cell cytotoxins” value was “++++ (>54% (++++))” and the “Cyto (cytolysin/cytotoxin production)” value is listed as “++++ (>54% (++++))”.

Turning to `CC[C@H](C)[C@H](NC(=O)[C@H](CO)NC(=O)[C@H](CC(C)C)NC(=O)[C@H](CO)NC(=O)[C@H](CCC(N)=O)NC(=O)[C@H](CCCCN)NC(=O)[C@H](CC(C)C)NC(=O)[C@H](Cc1ccc(O)cc1)NC(=O)[C@H](CC(C)C)NC(=O)[C@@H](N)CCCCN)C(=O)N[C@@H](C)C(=O)N[C@@H](CC(N)=O)C(=O)N[C@@H](C)C(=O)O` [Fp14-4] (H-KLYLKQSLSIANA-OH; N-terminus and C-terminus assumed), the “Cyto: CD8+ T-cell cytotoxins” value was “++++ (>54% (++++))” and the “Cyto (cytolysin/cytotoxin production)” value is “++++ (>54% (++++))”.

Turning to `CC[C@H](C)[C@H](NC(=O)[C@@H](N)CCCCN)C(=O)N[C@@H](CCCNC(=N)N)C(=O)N[C@@H](CC(C)C)C(=O)N[C@@H](CCCNC(=N)N)C(=O)N1CCC[C@H]1C(=O)NCC(=O)NCC(=O)N[C@@H](CCCCN)C(=O)N[C@@H](CCCCN)C(=O)N[C@@H](CCCCN)C(=O)N[C@@H](Cc1ccc(O)cc1)C(=O)O` [HMA1], the “CyCD8: CD8+ T-cell cytolysin/cytotoxins (perforin, GrzA & B), frequency of responders” value (“CyCD8: CD8+ T-cell cytolysin/cytotoxins” for short) was “− (0%-1.4% (−))”.

With `CC(C)C[C@H](NC(=O)[C@@H](NC(=O)[C@H](C)NC(=O)[C@@H](NC(=O)[C@@H](NC(=O)[C@H](CC(N)=O)NC(=O)[C@H](Cc1ccc(O)cc1)NC(=O)[C@H](CC(C)C)NC(=O)[C@H](CO)NC(=O)[C@H](CCCNC(=N)N)NC(=O)[C@H](CC(C)C)NC(=O)[C@H](CCC(=O)O)NC(=O)[C@H](CCC(=O)O)NC(=O)[C@H](CO)NC(=O)CN)[C@@H](C)O)C(C)C)[C@@H](C)O)C(=O)O` [HMA2], the “CyCD8: CD8+ T-cell cytolysin/cytotoxins” value is reported as “− (0%-1.4% (−))”.

Consider `CC[C@H](C)[C@H](NC(=O)[C@H](CCCCN)NC(=O)[C@@H](NC(=O)[C@@H](NC(=O)[C@@H](NC(=O)[C@H](CC(C)C)NC(=O)[C@@H]1CCCN1C(=O)[C@H](CCCNC(=N)N)NC(=O)[C@H](CCC(N)=O)NC(=O)[C@H](Cc1c[nH]c2ccccc12)NC(=O)[C@H](CC(C)C)NC(=O)[C@@H](N)[C@@H](C)O)C(C)C)[C@@H](C)O)[C@@H](C)CC)C(=O)NCC(=O)NCC(=O)O` [HPR1], for which the “CyCD8: CD8+ T-cell cytolysin/cytotoxins” value is “− (0%-1.4% (−))”.

In the case of `CC[C@H](C)[C@H](N)C(=O)N1CCC[C@H]1C(=O)N[C@H](C(=O)NCC(=O)N[C@@H](CCC(=O)O)C(=O)N[C@H](C(=O)N[C@@H](Cc1ccc(O)cc1)C(=O)N[C@@H](CCCCN)C(=O)N[C@@H](CCCNC(=N)N)C(=O)N[C@@H](Cc1c[nH]c2ccccc12)C(=O)N[C@H](C(=O)N[C@H](C(=O)N[C@@H](CC(C)C)C(=O)NCC(=O)O)[C@@H](C)CC)[C@@H](C)CC)[C@@H](C)CC)C(C)C` [Hp9-3 (10-3)], the “CyCD8: CD8+ T-cell cytolysin/cytotoxins” value is reported as “+++ (40.1%-54% (+++))”.
